Earlier results on one compound are cited in US20070275062A1, “Controlled release oxycodone compositions” (priority 1993, published 2007).

The series has as its system pain. Conditions: for dose-response slopes: Beaver, et al.

Like-named read-outs stand apart in the source and are kept apart here.

Regarding `COc1ccc2c3c1O[C@H]1C(=O)CC[C@@]4(O)[C@@H](C2)N(C)CC[C@]314` [oxycodone], the “parallelism of the dose-response curves” value (in comparison with other oral and parenteral opioids) is on record as “no substantial deviation from parallelism”. In addition, the dose-response slopes result runs as follows: (oral as compared to parenteral oxycodone) “comparable dose-response slopes”; (parenteral oxycodone as compared to parenteral morphine) “comparable dose-response slopes”.
